Tests used:
CDK9/CycT1 = target: T1, CDK9/CycT1 (Homo sapiens, UniProt P50750); assay: CDK9/CycT1 kinase assay (TR-FRET, Method 1a); type: biochemical; conditions: 10 μM ATP; for IC50: Method 1a; for Selectivity CDK9 over CDK2: IC50 (CDK2)/IC50 (CDK9): Methods 1a and 2a
T1 construct: Recombinant full-length His-tagged human CDK9 and CycT1; His; purchased Invitrogen PV4131; host or cells: insect cells
Source text: 1a. CDK9/CycT1 Kinase Assay:
CDK9/CycT1-inhibitory activity of compounds of the present invention was quantified employing the CDK9/CycT1 TR-FRET assay as described in the following paragraphs:
Recombinant full-length His-tagged human CDK9 and CycT1, expressed in insect cells and purified by Ni-NTA affinity chromatography, were purchased from Invitrogen (Cat. No PV4131). As substrate for the kinase reaction biotinylated peptide biotin-Ttds-YISPLKSPYKISEG (C-terminus in amid form) was used which can be purchased e.g. from the company JERINI Peptide Technologies (Berlin, Germany).
For the assay 50 nl of a 100 fold concentrated solution of the test compound in DMSO was pipetted into a black low volume 384 well microtiter plate (Greiner Bio-One, Frickenhausen, Germany), 2 μl of a solution of CDK9/CycT1 in aqueous assay buffer [50 mM Tris/HCl pH 8.0, 10 mM MgCl2, 1.0 mM dithiothreitol, 0.1 mM sodium ortho-vanadate, 0.01% (v/v) Nonidet-P40 (Sigma)] were added and the mixture was incubated for 15 min at 22° C. to allow pre-binding of the test compounds to the enzyme before the start of the kinase reaction. […] The concentration of CDK9/CycT1 was adjusted depending of the activity of the enzyme lot and was chosen appropriate to have the assay in the linear range, typical concentrations were in the range of 1 μg/mL. The reaction was stopped by the addition of 5 μl of a solution of TR-FRET detection reagents (0.2 μM streptavidine-XL665 [Cisbio Bioassays, Codolet, France] and 1 nM anti-RB(pSer807/pSer811)-antibody from BD Pharmingen [#558389] and 1.2 nM LANCE EU-W1024 labeled anti-mouse IgG antibody [Perkin-Elmer, product no. AD0077]) in an aqueous EDTA-solution (100 mM EDTA, 0.2% (w/v) bovine serum albumin in 100 mM HEPES pH 7.5).
The resulting mixture was incubated 1 h at 22° C. to allow the formation of complex between the phosphorylated biotinylated peptide and the detection reagents. Subsequently the amount of phosphorylated substrate was evaluated by measurement of the resonance energy transfer from the Eu-chelate to the streptavidine-XL. Therefore, the fluorescence emissions at 620 nm and 665 nm after excitation at 350 nm was measured in a HTRF reader, e.g. a Rubystar (BMG Labtechnologies, Offenburg, Germany) or a Viewlux (Perkin-Elmer). The ratio of the emissions at 665 nm and at […] was taken as the measure for the amount of phosphorylated substrate. The data were normalised (enzyme reaction without inhibitor=0% inhibition, all other assay components but no enzym=100% inhibition).

B16F10 cells = assay: Proliferation assay, crystal violet (Method 3); type: cell-based; conditions: Mus musculus, B16-F10, 96 h; B16F10, 4 days; read-out: Inhibition of B16F10 cell proliferation IC50
Procedure: (§1) Cultivated tumour cells (HeLa, human cervical tumour cells, ATCC CCL-2; NCI-H460, human non-small cell lung carcinoma cells, ATCC HTB-177; DU 145, hormone-independent human prostate carcinoma cells, ATCC HTB-81; HeLa-MaTu-ADR, multidrug-resistant human cervical carcinoma cells, EPO-GmbH Berlin; Caco-2, human colorectal carcinoma cells, ATCC HTB-37; B16F10, mouse melanoma cells, ATCC CRL-6475) were plated at a density of 5,000 cells/well (DU145, HeLa-MaTu-ADR), 3,000 cells/well (NCI-H460, HeLa), 1,500 cells/well (Caco-2), or 1,000 cells/well (B16F10) in a 96-well multititer plate in 200 μL of their respective growth medium supplemented 10% fetal calf serum. After 24 hours, the cells of one plate (zero-point plate) were stained with crystal violet (see below), while the medium of the other plates was supplemented with the test substances in various concentrations (0 μM, as well as in the range of 0.0001-10 μM; the final concentration of the solvent dimethyl sulfoxide was adjusted to 0.1%) using a Hewlett-Packard HP D300 Digital Dispenser. The cells were incubated for 4 days in the presence of test substances. Cell proliferation was determined by staining the cells with crystal violet: the cells were fixed by adding 20 μl/measuring point of an 11% glutaric aldehyde solution for 15 minutes at room temperature. After three washing cycles of the fixed cells with water, the plates were dried at room temperature. The cells were stained by adding 100 μl/measuring point of a 0.1% crystal violet solution (pH 3.0). After three washing cycles of the stained cells with water, the plates were dried at room temperature. The dye was dissolved by adding 100 μl/measuring point of a 10% acetic acid solution. The extinction was determined by photometry at a wavelength of 595 nm. The change of cell number, in percent, was calculated by normalization of the measured values to the extinction values of the zero-point plate (=0%) and the extinction of the untreated (0 μm) cells (=100%). The IC50 values (inhibitory concentration at 50% of maximal effect) were determined by means of a 4 parameter fit.

Caco-2 cells = assay: Proliferation assay, crystal violet (Method 3); type: cell-based; conditions: Homo sapiens, 96 h; Caco-2, 4 days; read-out: Inhibition of Caco-2 cell proliferation IC50
Procedure: as §1

DU145 cells = assay: Proliferation assay, crystal violet (Method 3); type: cell-based; conditions: Homo sapiens, DU-145, 96 h; DU145, 4 days; read-out: Inhibition of DU145 cell proliferation IC50
Procedure: as §1

HeLa-MaTu-ADR cells = assay: Proliferation assay, crystal violet (Method 3); type: cell-based; conditions: Homo sapiens, 96 h, 4 days, read-out: Inhibition of HeLa-MaTu-ADR cell proliferation IC50
Procedure: as §1

NCI-H460 cells = assay: Proliferation assay, crystal violet (Method 3); type: cell-based; conditions: Homo sapiens, 96 h; NCI-H460, 4 days; read-out: Inhibition of NCI-H460 cell proliferation IC50
Procedure: as §1

T1 sequence (P50750 whole entry): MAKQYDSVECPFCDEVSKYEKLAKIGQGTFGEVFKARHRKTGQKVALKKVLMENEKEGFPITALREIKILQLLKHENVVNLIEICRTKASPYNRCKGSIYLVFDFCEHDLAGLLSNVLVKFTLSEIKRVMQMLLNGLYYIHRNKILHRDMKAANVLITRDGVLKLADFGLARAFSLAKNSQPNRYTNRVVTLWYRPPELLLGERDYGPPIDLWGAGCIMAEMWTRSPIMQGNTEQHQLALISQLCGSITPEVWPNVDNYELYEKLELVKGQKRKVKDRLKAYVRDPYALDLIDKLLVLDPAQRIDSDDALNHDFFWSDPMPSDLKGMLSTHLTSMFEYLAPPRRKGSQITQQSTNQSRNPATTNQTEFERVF
T1 sequence (O60563 whole entry partner): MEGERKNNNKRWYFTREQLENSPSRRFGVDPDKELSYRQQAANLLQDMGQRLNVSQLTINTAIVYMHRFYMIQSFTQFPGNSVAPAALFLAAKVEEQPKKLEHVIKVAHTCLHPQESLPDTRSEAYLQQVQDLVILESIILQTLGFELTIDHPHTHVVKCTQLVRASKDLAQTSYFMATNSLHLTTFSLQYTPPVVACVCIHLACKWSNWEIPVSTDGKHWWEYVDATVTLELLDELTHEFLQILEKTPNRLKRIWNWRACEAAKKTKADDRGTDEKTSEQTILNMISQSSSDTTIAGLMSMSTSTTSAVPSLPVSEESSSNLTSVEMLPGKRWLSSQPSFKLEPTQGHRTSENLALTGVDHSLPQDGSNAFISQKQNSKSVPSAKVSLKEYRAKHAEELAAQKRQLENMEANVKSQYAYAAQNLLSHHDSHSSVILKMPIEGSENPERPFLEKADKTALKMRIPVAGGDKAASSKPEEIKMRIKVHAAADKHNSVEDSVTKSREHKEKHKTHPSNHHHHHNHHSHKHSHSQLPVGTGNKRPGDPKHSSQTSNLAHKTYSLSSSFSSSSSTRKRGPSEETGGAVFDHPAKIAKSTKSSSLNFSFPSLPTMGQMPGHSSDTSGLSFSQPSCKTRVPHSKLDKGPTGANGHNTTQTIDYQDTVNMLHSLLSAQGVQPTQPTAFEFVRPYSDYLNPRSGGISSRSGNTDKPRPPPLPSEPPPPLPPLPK

| IC50 (CDK9/CycT1) | Selectivity CDK9 over CDK2: IC50 (CDK2)/IC50 (CDK9) (CDK9/CycT1) | IC50 (B16F10 cells) | IC50 (Caco-2 cells) | IC50 (DU145 cells) | IC50 (HeLa-MaTu-ADR cells) | IC50 (NCI-H460 cells) | Structure (SMILES) |
| --- | --- | --- | --- | --- | --- | --- | --- |
| 13 nM | 7.4 | 85 nM | 48 nM | 36 nM | 75 nM | 39 nM | CC(C)(C)OC(=O)N=S(C)(=O)Cc1cc2nc(c1)Nc1cc(c(F)cn1)-c1ccc(F)cc1OCCCCCN2 (racemic) [Example 9, (rac)-tert-butyl[{[17,21-difluoro-2,3,4,5,6,7-hexahydro-13H-12,8-(azeno)-14,18-(metheno)-1,7,13,15-benzoxatriazacycloicosin-10-yl]methyl}(methyl)oxido-λ^6-sulfanylidene]carbamate] |
| 6.5 nM | – | – | 68 nM | 55 nM | 94 nM | 79 nM | CC(C)(C)OC(=O)N=S(C)(=O)Cc1cc2cc(c1)OCCCNc1cc(F)ccc1-c1nc(ncc1F)N2 (racemic) [Example 13, (rac)-tert-butyl[{[15,19-difluoro-1,2,3,4-tetrahydro-16,12-(azeno)-6,10-(metheno)-5,1,11,13-benzoxatriazacyclooctadecin-8(11H)-yl]methyl}(methyl)oxido-λ^6-sulfanylidene]carbamate] |
| – | – | 543 nM | 243 nM | 327 nM | 334 nM | 476 nM | CC(C)(C)OC(=O)N=S(C)(=O)Cc1cc2cc(c1)OCCCCSc1cc(F)ccc1-c1nc(ncc1F)N2 (racemic) [Example 21, (rac)-tert-butyl[{[16,20-difluoro-2,3,4,5-tetrahydro-12H-17,13-(azeno)-11,7-(metheno)-6,1,12,14-benzoxathiadiazacyclononadecin-9-yl]methyl}(methyl)oxido-λ^6-sulfanylidene]carbamate] |
| 91 nM | 28.2 | – | – | – | – | – | CC(C)(C)OC(=O)N=S(C)(=O)Cc1cc2cc(c1)Nc1ncc(F)c(n1)-c1ccc(F)cc1OCCCCN2 (racemic) [Example 24, (rac)-tert-butyl[{[16,20-difluoro-3,4,5,6-tetrahydro-2H,12H-13,17-(azeno)-11,7-(metheno)-1,6,12,14-benzoxatriazacyclononadecin-9-yl]methyl}(methyl)oxido-λ^6-sulfanylidene]carbamate] |

Continued, compound first:

| Structure (SMILES) | IC50 (CDK9/CycT1) | Selectivity CDK9 over CDK2: IC50 (CDK2)/IC50 (CDK9) (CDK9/CycT1) | IC50 (B16F10 cells) | IC50 (Caco-2 cells) | IC50 (DU145 cells) | IC50 (HeLa-MaTu-ADR cells) | IC50 (NCI-H460 cells) |
| --- | --- | --- | --- | --- | --- | --- | --- |
| CS(=O)(Cc1cc2nc(c1)Nc1cc(c(F)cn1)-c1ccc(F)cc1OCCCCN2)=NC(=O)OCc1ccccc1 (racemic) [Example 2, (rac)-Benzyl[{[16,20-difluoro-3,4,5,6-tetrahydro-2H,12H-11,7-(azeno)-13,17-(metheno)-1,6,12,14-benzoxatriazacyclononadecin-9-yl]methyl}(methyl)oxido-λ^6-sulfanylidene]carbamate] | 14.7 nM | 47.5 | 77 nM | 98 nM | 93 nM | 119 nM | 80 nM |
| CS(=N)(=O)Cc1cc2nc(c1)Nc1cc(c(F)cn1)-c1ccc(F)cc1OCCCCN2 (racemic) [Example 3, (rac)-16,20-Difluoro-9-[(S-methylsulfonimidoyl)methyl]-3,4,5,6-tetrahydro-2H,12H-11,7-(azeno)-13,17-(metheno)-1,6,12,14-benzoxatriazacyclononadecine] | 8.3 nM | 5.3 | – | – | – | – | – |
| C[S+]([O-])Cc1cc2nc(c1)OCCCCc1cc(F)ccc1-c1cc(ncc1F)N2 (racemic) [Example 5, (rac)-2,18-Difluoro-9-[(methylsulfinyl)methyl]-13,14,15,16-tetrahydro-6H-7,11-(azeno)-5,1-(metheno)-12,4,6-benzoxadiazacyclooctadecine] | 6.2 nM | 44.4 | – | 761 nM | 836 nM | 830 nM | 1070 nM |
| CC(C)(C)OC(=O)N=S(C)(=O)Cc1cc2nc(c1)Nc1cc(c(F)cn1)-c1ccc(F)cc1OCCCN2 (racemic) [Example 7, (rac)-tert-butyl[{[15,19-difluoro-2,3,4,5-tetrahydro-11H-10,6-(azeno)-16,12-(metheno)-1,5,11,13-benzoxatriazacyclooctadecin-8-yl]methyl}(methyl)oxido-λ^6-sulfanylidene]carbamate] | 7.5 nM | 3.6 | 44 nM | 33 nM | 30 nM | 53 nM | 37 nM |
| CS(=N)(=O)Cc1cc2nc(c1)Nc1cc(c(F)cn1)-c1ccc(F)cc1OCCCN2 (racemic) [Example 8, (rac)-15,19-difluoro-8-[(S-methylsulfonimidoyl)methyl]-2,3,4,5-tetrahydro-11H-10,6-(azeno)-16,12-(metheno)-1,5,11,13-benzoxatriazacyclooctadecine] | 2.7 nM | 3.4 | 11 nM | 7.6 nM | 5.6 nM | 5 nM | 39 nM |
| CS(=N)(=O)Cc1cc2cc(c1)OCCCNc1cc(F)ccc1-c1nc(ncc1F)N2 (racemic) [Example 14, rac-15,19-difluoro-8-[(S-methylsulfonimidoyl)methyl]-1,2,3,4-tetrahydro-16,12-(azeno)-6,10-(metheno)-5,1,11,13-benzoxatriazacyclooctadecine] | 3.2 nM | – | – | – | – | – | – |
| CS(=N)(=O)Cc1cc2cc(c1)OCCCCSc1cc(F)ccc1-c1nc(ncc1F)N2 (racemic) [Example 22, (rac)-16,20-difluoro-9-[(S-methylsulfonimidoyl)methyl]-2,3,4,5-tetrahydro-12H-17,13-(azeno)-11,7-(metheno)-6,1,12,14-benzoxathiadiazacyclononadecine] | – | – | 110 nM | 74 nM | 36 nM | 105 nM | 115 nM |
| CN1CCCCOc2cc(F)ccc2-c2nc(ncc2F)Nc2cc(CS(C)(=N)=O)cc1c2 (racemic) [Example 23, (rac)-16,20-difluoro-6-methyl-9-[(S-methylsulfonimidoyl)methyl]-3,4,5,6-tetrahydro-2H,12H-13,17-(azeno)-11,7-(metheno)-1,6,12,14-benzoxatriazacyclononadecine] | 5.2 nM | 20.0 | – | – | – | – | – |

— patent US10214542B2, “Modified macrocyclic compounds” (BAYER PHARMA AKTIENGESELLSCHAFT, priority 2015, dated 2019)
